For assay [1], the system named is G166 human glioblastoma stem cells. Put plainly: MTT colour viability test and phase-contrast images. The assay is classed as cell-based. To be noted: 50 μM; for proliferation and survival of human glioblastoma stem cells: phase-contrast images at 48h and MTT at 0, 24, 48 and 72h, FIGS. 5 and 6; for morphology and viability of glioblastoma stem cells (MTT assay): FIG. 1. The method, then:
The human glioblastoma stem cell line G166 was obtained from Biorep, deposited and characterised in Pollard et al., Cell Stem Cell. 4(6):568-80 (2009). The human glioblastoma stem cell line E22 was also obtained from Pollard lab (U. Edinburgh).
In all these cases, cells were cultured in neurobasal culture medium supplemented with 2% B27, 1% N2, 20 ng/mL EGF and 20 ng/mL bFGF, in laminin-coated culture plates, to generate adherent cell cultures. Thanks to their self-renewal capacity, when these cells are expanded in adherent cultures under these culture conditions, they maintain the above-mentioned properties, i.e. the characteristic glioblastoma stem cell phenotype and genotype, including their tumourigenicity, for more than 20 passages.
(§1) Different peptides based on the 266-283 sequence of Cx43 fused to TAT at its N-terminal end were used, all at a concentration of 50 μM, in culture medium and their effect was analysed at different treatment times. In parallel, these cells were analysed in the absence of treatment (control), in the presence of the antitumour peptide TAT-Cx43266-283 ([…]; corresponding to the peptide described in patent WO2014191608 A1 linked to the cell internalisation sequence TAT; SEQ ID NO: 35) and in the presence of the peptides without antitumour activity, TAT (YGRKKRRQRRR; SEQ ID NO: 7) and TAT-Cx43274-291 (YGRKKRRQRRR PTAPLSPMSPPGYKLVTG; SEQ ID NO: 26). For pull-down assays and visualization the peptides were fused to biotin via a C-terminal lysine.
For this study, cells were seeded at low density and the number of viable cells was determined at different days of treatment. For this purpose, the medium was removed and the cells were incubated with 300 μL of PBS in the presence of MTT (0.5 mg/mL) for 75 minutes in the dark at 37° C. in a CO2 incubator. The medium was then removed, and 500 μL of DMSO was added. The cells were shaken in the dark for 10 minutes. Finally, absorbance was determined at 570 nm.
(In general: Tetrazolium dyes change colour on reduction, which living cells bring about.)

The target of the next assay is albumin (Homo sapiens, UniProt P02768). Put plainly: Albumin binding by Western blot under native or denaturing and reducing conditions. The following applies: 2.5 μM biotinylated peptide plus 0.1% (w/v) albumin in PBS, native conditions, FIG. 8. The method, then:
FIG. 8. TAT-Cx43266-283 and TAT-Cx43266-275 bind to albumin via a cysteine dependent mechanism. TAT, TAT-Cx43274-291, TAT-Cx43266-283, TAT-Cx43266-283F/A, TAT-Cx43266-283C/A and TAT-Cx43266-275 were fused to biotin to allow their analysis by Western blot. Solutions of each peptide plus albumin in PBS were analyzed in native (N) or denaturing and reducing conditions (DR) to identify their interaction with albumin. […] Note that the sensitivity of the Ponceau staining was not enough to detect the peptide at about 10 kDa, therefore only albumin bands are shown. […] Note that TAT-Cx43266-283 and TAT-Cx43266-275 appear bound to albumin under native conditions while denaturation and reduction promoted the release of these peptides.
Western blotting was performed as described previously (Jaraiz-Rodriguez, M. et al., Neuro-Oncology, 22, 493-504 (2020)). Briefly, 2.5 μM biotinylated peptides plus 0.1% (w/v) albumin in PBS were analysed by Western blot under native (N) or denaturing and reducing (DR) conditions. For native conditions, samples were analysed without further treatment. For denaturing and reducing conditions samples were treated with 0.1 M β-mercaptoethanol and 4% SDS and heated at 99° C. for 5 min. Samples were subjected to electrophoresis on NuPAGE Novex Bis-Tris 4-12% Midi gels (Life Technologies) at room temperature and constant voltage. Proteins were transferred to a nitrocellulose membrane (iBlot Gel Transfer Stacks Nitrocellulose) using an iBlot dry blotting system (Life Technologies). Membranes were incubated with Ponceau S staining solution for protein staining in red. After washing the membranes were blocked with 5% non-fat dry milk in PBS and then incubated with HRP-Streptavidin (1:5000; Dako P0397) for 30 minutes at room temperature. After extensive washing, the membranes were developed with a chemiluminescent substrate (Western Blotting Luminol Reagent; Santa Cruz Biotechnology) in a MicroChemi imaging system (Bioimaging Systems).
(Immunoblotting shows a protein as a band on a membrane.)

The next assay has as its target T1, Csk (Homo sapiens, UniProt P41240).
T1 construct: endogenous in cells; host or cells: human E22 glioblastoma stem cells
Put plainly: Pull-down of biotinylated peptides with NeutrAvidin beads, Western blot. The assay is classed as binding. To be noted: 50 μM biotinylated peptide, 30 min, E22 glioblastoma stem cells, FIG. 9. How it is done: (§2) FIG. 9. Intracellular interactions of biotinylated TAT-Cx43266-283, TAT-Cx43266-283C/A and TAT-Cx43266-275 in human glioblastoma stem cells. Human E22 glioblastoma stem cells were incubated with 50 μM biotinylated TAT-Cx43266-283, TAT-Cx43266-283C/A and TAT-Cx43266-275. After 30 min the cells were lysed and biotinylated peptides attached to their intracellular partners were pulled down with NeutrAvidin beads. The eluted proteins were loaded and analyzed by Western blot to study the levels of c-Src, Y416-Src, and Csk.
(§3) Pulldown experiments were performed as described in González-Sánchez A. et al., Oncotarget, 7(31):49819-49833 (2016); Jaraiz-Rodriguez M. et al., J Vis Exp. (130):56457 (2017)). Confluent cells grown in 25 cm^2 flasks were incubated with 50 μM biotinylated peptides for 30 min. Proteins were then collected in 0.5 ml of lysis buffer (20 mM Tris-HCl (pH 8.0), 137 mM NaCl, 1% IGEPAL, 1 mM PMSF, protease cocktail (1:100; Cocktail Ill, Calbiochem), 1 mM NaF and 0.1 mM Na3VO4). Lysates were centrifuged at 11000×g for 10 minutes at 4° C., and the supernatants were recovered. A 50-μl aliquot of each lysate was used to analyze the protein content, and the remaining lysate was incubated with NeutrAvidin-Agarose (Thermo Scientific, Rockford, IL, USA; Ref. 29200) for 12 h at 4° C. with gentle shaking. The avidin beads bound with the peptides were collected by centrifugation (3000×g for 1 minutes at 4° C.). The beads were then washed five times with lysis buffer, and the bound proteins were eluted and analyzed by Western blotting under denaturing and reducing contidions. The membranes were blocked with 5% non-fat dry milk in PBS-T and then incubated overnight at 4° C. with the primary antibodies against rabbit CSK (1:250; Cell Signaling Technology, Ref. 4980), rabbit Y416 Src (1:250, Cell Signaling Technology, Ref. 2101) and mouse total c-Src (1:500, Cell Signaling Technology, Ref. 2110). To detect biotinylated peptides, the membranes were incubated with HRP-conjugated streptavidin in PBS (1:5000; Dako Ref.P0397) for 30 minutes and then developed with a chemiluminescent substrate.

The target in the next assay is T2, Y416-Src (Homo sapiens, UniProt P12931).
T2 construct: endogenous in cells; host or cells: human E22 glioblastoma stem cells
Described as above. In kind it is binding. To be noted: 50 μM biotinylated peptide, 30 min, E22 glioblastoma stem cells, FIG. 9. How it is done: as §2, §3

In assay [2] the target is T3, c-Src (Homo sapiens, UniProt P12931). The assay is described as above. In kind it is binding. More on the design: the cells were lysed and biotinylated peptides attached to their intracellular partners were pulled down with NeutrAvidin beads; endogenous in cells; host or cells: human E22 glioblastoma stem cells. The following applies: 50 μM biotinylated peptide, 30 min, E22 glioblastoma stem cells, FIG. 9. How it is done: as §2
as §3, with “To detect biotinylated peptides, the membranes were incubated with HRP-conjugated streptavidin in PBS (1:5000; Dako Ref.P0397) for 30 minutes and then developed with a chemiluminescent substrate.” left out

Assay [3] concerns human glioblastoma stem cells. Put plainly: Internalisation of biotin-fused peptides. The assay is classed as cell-based. The following applies: peptides fused to biotin. How it is done:
as §1

Assay [4] has as its system G166 human glioblastoma stem cells. Put plainly: Migration by live cell microscope videos. In kind it is cell-based. To be noted: 50 μM, frames every 100 minutes, FIG. 7. How it is done:
FIG. 7. Representative images of the effect of Cx43-based penetrating peptides on the migration of human glioblastoma stem cells. G166 human glioblastoma stem cells were treated in the absence (control) or presence of TAT-Cx43266-283 or TAT-Cx43266-275, both at a concentration of 50 μM. Phase-contrast videos of the cells were made using a live cell microscope. Shown are 3 representative frames taken every 100 minutes of the cells in the control condition, TAT-Cx43266-283 and TAT-Cx43266-275. 3 cells in each condition have been selected and numbered.
Migration is the cause of these tumour cells invading the surrounding parenchyma, escaping surgery and causing the recurrence of these tumours, which is the main cause of mortality.

Assay [5] addresses T3, c-Src. To be noted: from cited publications; cited from earlier work.
Assay [6] concerns human and mouse glioblastoma stem cells. To be noted: in vitro and in vivo, from cited publications; cited from earlier work.

T1 sequence (P41240 whole entry): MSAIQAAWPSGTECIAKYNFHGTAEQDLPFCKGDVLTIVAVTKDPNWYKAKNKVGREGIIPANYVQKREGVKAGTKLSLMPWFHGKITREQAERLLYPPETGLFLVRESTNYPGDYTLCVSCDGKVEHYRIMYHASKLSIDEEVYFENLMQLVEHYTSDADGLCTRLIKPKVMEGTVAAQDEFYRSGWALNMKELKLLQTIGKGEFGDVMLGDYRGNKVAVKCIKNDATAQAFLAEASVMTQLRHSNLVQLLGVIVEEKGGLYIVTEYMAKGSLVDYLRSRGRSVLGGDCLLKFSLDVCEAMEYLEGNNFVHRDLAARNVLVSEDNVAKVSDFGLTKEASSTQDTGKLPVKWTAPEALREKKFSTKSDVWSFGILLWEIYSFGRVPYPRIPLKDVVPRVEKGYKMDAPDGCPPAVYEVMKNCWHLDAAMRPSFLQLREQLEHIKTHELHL

For “YGRKKRRQRRR (Cell internalisation sequence) [TAT, reference compound]”, in assay [1], the “proliferation and survival of human glioblastoma stem cells” value (“proliferation and survival” below) is “do not produce significant effects”.

In the case of “YGRKKRRQRRR PTAPLSPMSPPGYKLVTG (YGRKKRRQRRRPTAPLSPMSPPGYKLVTG) [TAT-Cx43274-291, reference compound]”, in assay [1], the “proliferation and survival” value is given as “do not produce significant effects”.

As to “YGRKKRRQRRRAYANGCSSPTAPLSPMSP [TAT-Cx43266-283 F/A]”, in [1] (48h, FIG. 4), the “tumour cell morphology and viability (MTT assay)” value is “affects tumour cell morphology and viability, but to a much lesser extent”. For the same sequence, the binding to albumin result with albumin was “did not affect the interaction with albumin”.

Regarding “YGRKKRRQRRRAYFNGASSPTAPLSPMSP [TAT-Cx43266-283 C/A]”, the “morphology and viability of glioblastoma stem cells (MTT assay)” value in assay [1] (48h) is recorded as “very similar to that of untreated (control) cells”. Further, the binding to albumin entry with albumin is “disrupted albumin-peptide interaction”. Moreover, the “intracellular interaction with Csk” value with Csk was “did not show significant interactions”. The “intracellular interaction with Y416-Src” value with Y416-Src is on record as “did not show significant interactions”. In addition, in the assay with c-Src [2], the “intracellular interaction with c-Src” value is “did not show significant interactions”.

Regarding YGRKKRRQRRRAYFNGCSSPT [TAT-Cx43266-275], the “anti-tumour effect compared with the other peptides (MTT assay)” value in assay [1] (0-72h, FIG. 6) is listed as “significantly higher than the rest of the peptides”. Further, the “proliferation and survival” value in assay [1] is “reduce proliferation and survival”. Moreover, in assay [3], the “internalisation in human glioblastoma stem cells” value (“internalisation” below) is listed as “able to be internalised”. Further, in [4], the “migration of human glioblastoma stem cells” value is “reduces the migration”. Besides, in the assay with albumin, the binding to albumin entry is “bind to albumin under native conditions”. The “intracellular interaction with Csk” value in the assay with Csk is “interact preferentially”. In addition, the “intracellular interaction with Y416-Src” value in the assay with Y416-Src is “interact preferentially”. In the assay with c-Src [2], the “intracellular interaction with c-Src” value was “interact preferentially”.

As to “YGRKKRRQRRRAYFNGCSSPTAP [TAT-Cx43266-277]”, in assay [1], the “proliferation and survival” value was “reduce proliferation and survival”. In addition, the “internalisation” value in assay [3] is reported as “able to be internalised”.

With “YGRKKRRQRRRAYFNGCSSPTAPLS [TAT-Cx43266-279]”, the “proliferation and survival” value in [1] is “reduce proliferation and survival”. The “internalisation” value in [3] is given as “able to be internalised”.

With “YGRKKRRQRRRAYFNGCSSPTAPLSPM [TAT-Cx43266-281]”, in assay [1], the “proliferation and survival” value was “reduce proliferation and survival”. Besides, the “internalisation” value in [3] is “able to be internalised”.

In the case of “YGRKKRRQRRRAYFNGCSSPTAPLSPMSP [TAT-Cx43266-283, reference compound]”, the “morphology and viability of glioblastoma stem cells (MTT assay)” value in assay [1] (48h) is “significantly reduces the viability”. In assay [1], the “proliferation and survival” value is “reduce proliferation and survival”. Also, the “internalisation” value in assay [3] is listed as “able to be internalised”. Also, in assay [4], the “migration of human glioblastoma stem cells” value is given as “reduces the migration”. Also, in the assay with albumin, the binding to albumin entry was “bind to albumin under native conditions”. Further, the “intracellular interaction with Csk” value with Csk is recorded as “interact preferentially”. Further, in the assay with Y416-Src, the “intracellular interaction with Y416-Src” value was “interact preferentially”. The c-Src activity result with c-Src [5] is reported as “inhibit c-Src activity”. Also, in assay [6], the antitumour effect entry is “potent antitumour effect”. Besides, the “intracellular interaction with c-Src” value with c-Src [2] was “interact preferentially”.

“YGRKKRRQRRRCSSPTAPLSPMSPPGYK [TAT-Cx43271-287]”: the “glioblastoma stem cell survival and proliferation (MTT assay)” value in [1] (72h, FIG. 2) is “slightly reduces glioblastoma stem cell proliferation”.

Take “YGRKKRRQRRRFNGCSSPTAPLSPMSP [TAT-Cx43268-283]”: the “ability to reduce proliferation (MTT assay)” value in assay [1] (72h, FIG. 3) is “less ability to reduce proliferation than TAT-Cx43266-283”.

(Values after patent publication US20250101077A1, “PEPTIDES AND PHARMACEUTICAL COMPOSITION FOR THE TREATMENT OF TUMOURS” (UNIVERSIDAD DE SALAMANCA, priority 2022, published 2025).)
